This is an account of results in ChEMBL document CHEMBL4706528, “The design, synthesis and anti-tumor mechanism study of new androgen receptor degrader” (Eur J Med Chem, 2020).

Activity calls are given as the source filed them. The rule behind the calls is not given here. A value given as a limit tells only on which side of the number the result lay.

The subject of data set [1] is LNCaP. Description: Induction of cell cycle arrest in human LNCaP cells assessed as accumulation at G1 phase at 1 micromol/L after 24 hrs by RNase A/PI-staining based flow cytometric analysis (reference value: 47.99%). Type of data set: functional. The conditions noted are these: dose 1 µmol/L, at 1 µM. A general note: Flow cytometry measures light scatter and fluorescence of single cells or particles in a stream.

The target in data set [2] is Prostate-specific antigen (Homo sapiens) (UniProt P07288). The data set is described as follows: Induction of downregulation of PSA (unknown orgin) human LNCaP cells at 1 uM after 24 hrs by Western blot analysis.
Sequence of Prostate-specific antigen (Homo sapiens) (P07288 whole entry, looked up): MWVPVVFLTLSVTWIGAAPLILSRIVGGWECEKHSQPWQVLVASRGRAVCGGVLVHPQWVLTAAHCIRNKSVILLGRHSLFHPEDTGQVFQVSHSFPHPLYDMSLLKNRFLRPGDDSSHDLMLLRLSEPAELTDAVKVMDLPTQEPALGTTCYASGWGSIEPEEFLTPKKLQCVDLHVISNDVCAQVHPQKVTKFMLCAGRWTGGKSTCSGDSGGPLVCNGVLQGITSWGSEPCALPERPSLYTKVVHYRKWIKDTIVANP
The test system of a further data set is PC-3. The data set is described as follows: Antiproliferative activity against androgen-negative human PC-3 cells assessed as cell growth inhibition measured after 72 hrs by SRB assay. The conditions noted are these: PC-3, 72 h. Type of data set: functional, cell-based.
Data set [3] addresses Prostate-specific antigen (Homo sapiens) (UniProt P07288). Description: Induction of downregulation of PSA (unknown orgin) human LNCaP cells at 10 uM after 24 hrs by Western blot analysis. For orientation: In western blotting, separated proteins are transferred to a membrane and probed.
Data set [4] deals with LNCaP. The data set is described as follows: Induction of apoptosis in human LNCaP cells assessed as late apoptotic cells level at 1 micromol/L incubated for 24 hrs by Annexin V/PI staining staining based flow cytometry (reference value: 0.940%). The data set is classed as functional. The conditions noted are these: dose 1 µmol/L, at 1 µM.
Data set [5] deals with LNCaP. Description: Induction of cell cycle arrest in human LNCaP cells assessed as accumulation at S phase at 10 micromol/L after 24 hrs by RNase A/PI-staining based flow cytometric analysis (reference value: 20.69%). The data set is classed as functional. The settings on record: dose 10 µmol/L, at 10 µM.
Data set [6] relates to LNCaP. The data set is described as follows: Induction of apoptosis in human LNCaP cells assessed as viable cells level at 10 micromol/L incubated for 24 hrs by Annexin V/PI staining staining based flow cytometry (reference value: 96.3%). The data set is classed as functional. The settings on record: dose 10 µmol/L, at 10 µM.
The next data set concerns the target T1, Progesterone receptor (Homo sapiens, UniProt P06401).
T1 sequence (P06401 whole entry): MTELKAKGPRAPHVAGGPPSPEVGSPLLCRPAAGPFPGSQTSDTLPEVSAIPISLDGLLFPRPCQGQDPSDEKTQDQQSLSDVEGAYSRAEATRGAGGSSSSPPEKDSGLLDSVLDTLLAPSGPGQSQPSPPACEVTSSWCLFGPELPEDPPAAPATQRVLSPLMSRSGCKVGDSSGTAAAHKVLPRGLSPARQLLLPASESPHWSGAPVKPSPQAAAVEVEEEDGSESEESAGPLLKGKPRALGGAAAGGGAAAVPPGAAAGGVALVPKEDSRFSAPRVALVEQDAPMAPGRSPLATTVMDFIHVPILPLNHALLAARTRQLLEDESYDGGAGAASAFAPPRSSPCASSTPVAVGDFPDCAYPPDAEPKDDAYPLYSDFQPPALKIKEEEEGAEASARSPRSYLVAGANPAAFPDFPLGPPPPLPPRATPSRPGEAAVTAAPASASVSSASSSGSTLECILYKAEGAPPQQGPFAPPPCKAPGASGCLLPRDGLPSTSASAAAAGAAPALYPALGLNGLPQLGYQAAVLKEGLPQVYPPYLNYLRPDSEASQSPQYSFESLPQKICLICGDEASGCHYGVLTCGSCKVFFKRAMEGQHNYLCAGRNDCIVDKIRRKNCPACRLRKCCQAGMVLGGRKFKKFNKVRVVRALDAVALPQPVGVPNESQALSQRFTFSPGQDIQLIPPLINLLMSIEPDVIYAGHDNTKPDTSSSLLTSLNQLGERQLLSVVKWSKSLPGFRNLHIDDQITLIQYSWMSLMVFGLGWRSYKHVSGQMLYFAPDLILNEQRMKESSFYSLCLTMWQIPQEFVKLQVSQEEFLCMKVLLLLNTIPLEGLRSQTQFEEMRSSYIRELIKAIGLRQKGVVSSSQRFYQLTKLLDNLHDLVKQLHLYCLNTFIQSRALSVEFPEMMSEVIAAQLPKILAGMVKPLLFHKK
The data set is described as follows: Induction of downregulation of progesterone receptor in human T47D cells at 10 uM measured after 24 hrs by Western blot analysis. Type of data set: cell-based.

The subject of a further data set is LNCaP C4-2B. Description: Antiproliferative activity against androgen-sensitive positive human LNCaP C4-2B cells assessed as cell growth inhibition measured after 72 hrs by SRB assay. Type of data set: functional, cell-based.
Data set [7] deals with LNCaP. The data set is described as follows: Induction of apoptosis in human LNCaP cells assessed as total apoptotic cells at 10 uM incubated for 24 hrs by Annexin V/PI staining staining based flow cytometry (reference value: 2.76%). The data set is classed as functional.
The next data set has as its system GES1. Description: Cytotoxicity against androgen-negative human GES1 cells assessed as cell growth inhibition measured after 72 hrs by SRB assay. The conditions noted are these: GES1, 72 h. Type of data set: cell-based. Background: The SRB assay estimates cell density from bound dye.
The subject of data set [8] is LNCaP. Description: Induction of cell cycle arrest in human LNCaP cells assessed as accumulation at G2 phase at 10 micromol/L after 24 hrs by RNase A/PI-staining based flow cytometric analysis (reference value: 20.87%). The data set is classed as functional. The settings on record: dose 10 µmol/L, at 10 µM.
The test system of data set [9] is LNCaP. The data set is described as follows: Induction of cell cycle arrest in human LNCaP cells assessed as accumulation at G1 phase at 10 micromol/L after 24 hrs by RNase A/PI-staining based flow cytometric analysis (reference value: 47.99%). Type of data set: functional. The settings on record: dose 10 µmol/L, at 10 µM.
Data set [10] concerns the target T2, Androgen receptor (Homo sapiens) (UniProt P10275).
T2 sequence (whole entry): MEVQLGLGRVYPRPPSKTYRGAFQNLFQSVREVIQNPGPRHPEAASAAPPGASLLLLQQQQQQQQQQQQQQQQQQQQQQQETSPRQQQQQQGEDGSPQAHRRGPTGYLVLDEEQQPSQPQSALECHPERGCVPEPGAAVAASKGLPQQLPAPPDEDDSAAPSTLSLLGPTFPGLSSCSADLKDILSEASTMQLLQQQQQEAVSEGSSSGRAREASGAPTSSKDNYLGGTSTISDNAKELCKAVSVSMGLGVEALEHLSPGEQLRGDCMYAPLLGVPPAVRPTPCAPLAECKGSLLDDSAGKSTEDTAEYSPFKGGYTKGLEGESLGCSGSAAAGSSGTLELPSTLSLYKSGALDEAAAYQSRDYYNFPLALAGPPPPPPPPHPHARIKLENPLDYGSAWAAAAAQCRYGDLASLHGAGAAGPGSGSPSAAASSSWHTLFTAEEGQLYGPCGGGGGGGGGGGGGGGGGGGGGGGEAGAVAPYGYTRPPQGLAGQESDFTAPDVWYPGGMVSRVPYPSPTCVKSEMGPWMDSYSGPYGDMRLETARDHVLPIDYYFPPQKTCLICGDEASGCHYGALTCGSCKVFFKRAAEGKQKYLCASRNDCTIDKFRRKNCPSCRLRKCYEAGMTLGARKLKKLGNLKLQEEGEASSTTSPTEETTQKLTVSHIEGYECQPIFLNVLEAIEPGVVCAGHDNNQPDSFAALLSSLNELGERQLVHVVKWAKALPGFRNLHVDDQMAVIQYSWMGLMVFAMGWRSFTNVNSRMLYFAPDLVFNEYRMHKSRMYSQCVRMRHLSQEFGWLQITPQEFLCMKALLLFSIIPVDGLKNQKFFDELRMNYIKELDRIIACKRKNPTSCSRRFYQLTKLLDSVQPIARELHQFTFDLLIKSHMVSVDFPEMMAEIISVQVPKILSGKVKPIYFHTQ
The data set is described as follows: Selective androgen receptor degradation activity at androgen receptor in human LNCaP cells assessed as down regulation of protein level at 2 uM after 24 hrs by Western blot analysis. Type of data set: cell-based.

In general, IC50 refers to the concentration at which inhibition is half-maximal. Take `CC1(C)C(=O)N(c2ccc(C#N)c(C(F)(F)F)c2)C(=S)N1CCCCCn1cc(COCCOCCOC(=O)CC23CC4CC(CC(C4)C2)C3)nn1`: the Activity is 59.3% in the data set on LNCaP [1]; 1.59% with LNCaP [4]; 16.11% with LNCaP [5]; 79% in the data set with LNCaP [6]; “Active” at Progesterone receptor; 19.22% with LNCaP [7]. Besides, the Activity is 6.4% in the data set on LNCaP [8] and 74.56% with LNCaP [9]. Besides, the result in data set [2], in data set [3] and in data set [10] was Active. The IC50 was greater than 80 µM in the data set on PC-3, 16.6 µM in the data set on LNCaP C4-2B and greater than 80 µM with GES1.
